According to ChEMBL document CHEMBL1144119, “1',2',3',4'-tetradehydrotubulosine, a cytotoxic alkaloid from Pogonopus speciosus” (1999):
Values after ≈ are worked out from the molar mass of the structure shown.

What was measured:
Format in all cases: functional
[1] = system: L1210; assay: In vivo antitumor activity against mouse L1210 cells assessed as increase in life span at 2 mg/kg
[2] = system: P388; assay: In vivo antitumor activity against mouse P388 cells assessed as increase in life span at 2 mg/kg
[3] = Cytotoxicity against human BC1 cells; conditions: read-out: ED50 (the source's name)
[4] = system: Lu1; assay: Cytotoxicity against human Lu1 cells; conditions: read-out: ED50 (the source's name)
[5] = system: Col2; assay: Cytotoxicity against human Col2 cells; conditions: read-out: ED50 (the source's name)
[6] = system: KB; assay: Cytotoxicity against human KB cells; conditions: read-out: ED50 (the source's name)
[7] = system: KB; assay: Cytotoxicity against human multidrug resistant KB cells in presence of vinblastine; conditions: read-out: ED50 (the source's name)
[8] = system: KB; assay: Cytotoxicity against human multidrug resistant KB cells in absence of vinblastine; conditions: read-out: ED50 (the source's name)
[9] = system: LNCaP; assay: Cytotoxicity against human LNCAP cells; conditions: read-out: ED50 (the source's name)
[10] = system: SW626; assay: Cytotoxicity against human SW626 cells; conditions: read-out: ED50 (the source's name)
[11] = system: SK-N-SH; assay: Cytotoxicity against human SK-N-SH cells; conditions: read-out: ED50 (the source's name)
[12] = system: M109; assay: Cytotoxicity against mouse M109 cells; conditions: read-out: ED50 (the source's name)

CC[C@H]1CN2CCc3cc(OC)c(OC)cc3[C@@H]2C[C@@H]1C[C@H]1NCCc2c1[nH]c1ccc(O)cc21 [TUBULOSINE]
Activity [1]: 30% | Activity [2]: 80% | EC50 [3]: 0.1 µg/mL (≈ 0.21 µM) | EC50 [4]: < 0.001 µg/mL | EC50 [5]: 0.05 µg/mL (≈ 0.105 µM) | EC50 [6]: < 0.16 µg/mL | EC50 [7]: 0.1 µg/mL | EC50 [8]: 0.1 µg/mL (≈ 0.21 µM) | EC50 [9]: < 0.16 µg/mL | EC50 [10]: 0.22 µg/mL (≈ 0.463 µM) | EC50 [11]: 0.1 µg/mL (≈ 0.21 µM) | EC50 [12]: 0.1 µg/mL (≈ 0.21 µM)

CC[C@H]1CN2CCc3cc(OC)c(OC)cc3[C@@H]2C[C@@H]1Cc1nccc2c1[nH]c1ccc(O)cc12
EC50 [3]: 3.9 µg/mL (≈ 8.27 µM) | EC50 [4]: 3.6 µg/mL (≈ 7.63 µM) | EC50 [5]: 2.8 µg/mL (≈ 5.94 µM) | EC50 [6]: 2.2 µg/mL (≈ 4.66 µM) | EC50 [7]: 9 µg/mL | EC50 [8]: 8.8 µg/mL (≈ 18.7 µM) | EC50 [9]: 6.8 µg/mL (≈ 14.4 µM) | EC50 [10]: 6.1 µg/mL (≈ 12.9 µM) | EC50 [11]: 4 µg/mL (≈ 8.48 µM) | EC50 [12]: 4.4 µg/mL (≈ 9.33 µM)

CC[C@H]1CN2CCc3cc(OC)c(OC)cc3[C@@H]2C[C@@H]1CC1=NCCc2cc(O)c(OC)cc21 [PSYCHOTRINE]
EC50 [3]: 3.4 µg/mL (≈ 7.32 µM) | EC50 [4]: 5.7 µg/mL (≈ 12.3 µM) | EC50 [5]: 4.5 µg/mL (≈ 9.69 µM) | EC50 [6]: 2.8 µg/mL (≈ 6.03 µM) | EC50 [7]: 9 µg/mL | EC50 [8]: 9.4 µg/mL (≈ 20.2 µM) | EC50 [9]: 2.3 µg/mL (≈ 4.95 µM) | EC50 [10]: 13.3 µg/mL (≈ 28.6 µM) | EC50 [11]: 4 µg/mL (≈ 8.61 µM) | EC50 [12]: 9 µg/mL (≈ 19.4 µM)
